Results published in US20130017163A1, “HALOGENATED PHENOLS FOR DIAGNOSTICS, ANTIOXIDANT PROTECTION AND DRUG DELIVERY” (priority 2011, published 2013).

Assays:
spontaneous tumors = details: 10 mg by gavage; X-ray imaging about two hours after; mice with spontaneous tumors; same mice before treatment showed no foci
Excerpt: As described above, oxidative foci or tumors may be identified by X-ray radiographic imaging of animals following administration of an indigogenic compound of the present invention. The radio-opaque indigo-like product formed and deposited with residence time in FROS-containing tumor tissues may then be detected.
In this example, female C3H/HeN mice were obtained as multiparous retired breeders (i.e., after 3 to 4 litters) that were positive for a mammary tumor virus. See, e.g., Sellitti, D. F., Tseng, Y-C., and Latham, K. R., “Effect of 3,5,3′-Triiodo-L-thyronine on the Incidence and Growth Kinetics of Spontaneous Mammary Tumors in C3H/HeN Mice,” Cancer Research, 41: 5015-19 (1981), the entire contents and disclosure of which are incorporated herein by reference. Mice showing spontaneous tumors were given 10 mg of 5-Iodo-Indoxyl-3′,5′-Diiodo-4′-hydroxy ether substrate (product of Example 4) by gavage. These mice were then subjected to X-ray imaging of the tumors about two hours after being fed the iodo-indigogenic compound. […] When developed, the X-ray film appears dark in areas where more transmission occurs and light in areas where less transmission occurs.

[1] = system: sites of the wound or injury; details: mice with small injuries or wounds (cuts, scratches); data not shown
[2] = Spontaneous ether cleavage and deiodination in buffered aqueous solution exposed to sunlight; assay type: physicochemical; details: about 1 mM in carbonate buffer (pH 8.0), sunlight for about one hour
Excerpt: In contrast to reductive deiodination, spontaneous dehalogenation (e.g., deiodination) of a halogentated phenol ring in the presence of an oxidizing agent(s) and/or free radical(s) with cleavage of a chemical linkage, such as an ether linkage, etc., between the phenol ring and a conjugated compound has not been described. According to the present invention, cleavage of the ether linkage between the aromatic rings of thyroid hormone may form visibly colored quinone and iodine-containing products in buffered aqueous solutions in vitro, and this ether cleavage reaction may be accelerated under basic pH conditions and with exposure to ionizing radiation or light. These conditions favor the increased formation of oxidizing agents and/or free radicals, which are believed to promote the reaction. […] A quinone and an iodotyrosine product are also formed by cleavage of the ether linkage during the reaction. According to embodiments of the present invention, a spontaneous reaction of dehalogenation and cleavage of a chemical bond is proposed for the targeted delivery and release of a drug compound at or to sites of inflammation or disease. This spontaneous reaction is further proposed as a basis for scavenging free radicals and/or oxidative agents (FROS) as well as for the creation of a detectable compound(s) that may be used for diagnostic purposes.

[3] = Cleavage of C—C bond during oxidative dehalogenation reaction; assay type: physicochemical; details: oxidative or free radical-mediated dehalogenation
Excerpt: It has also been discovered that other types of bonds or linkages may also be cleaved by oxidative or free radical-mediated dehalogenation of the phenol ring. For example, as described herein, it has now been observed that a carbonyl linkage, a nitrogen linkage, a sulfinyl linkage and possibly a C—C bond on the phenol ring may also be cleaved by the oxidative dehalogenation reaction. These bonds are also considered stable, and their cleavage in connection with the dehalogenation reaction is surprising as well. One caveat with the C—C bond or linkage is that depending on the particular starting compound structure and the substituents or groups attached to the halogenated phenol ring via the C—C bond, the C—C bond or linkage may or may not be generally cleaved during or following the dehalogenation reaction (see below). […] However, other compounds do become cleaved. It is important to note that whether a C—C bond of a particular starting compound is “cleavable,” or becomes cleaved, may not be all-or-nothing (i.e., the C—C bond may be considered non-cleavable even though a small or minute amount of cleavage may occur, and vice versa). Thus, the amount or percentage of cleavage may be partial with the alternatively cleaved or non-cleaved product being possibly undetected or minute. […]

Oc1c(I)cc(Oc2c[nH]c3ccc(I)cc23)cc1I [Example 4, 5-Iodo-Indolyl-3′,5′-Diiodo-4′-hydroxyl-p-Phenol Ether]
radio-opaque tumor regions or foci by X-ray (spontaneous tumors): radio-opaque tumor regions or foci
X-ray detection at sites of wound or injury [1]: strong detection was observed at the sites of the wound or injury

N[C@@H](Cc1cc(I)c(Oc2cc(I)c(O)c(I)c2)c(I)c1)C(=O)O [thyroxine]
cleavage of ether linkage with iodide release [2]: the ether linkage is broken spontaneously

N[C@@H](Cc1ccc(O)c(I)c1)C(=O)O [MIT, 3-iodo-4-hydroxy-L-phenylalanine]
cleavage of C—C bond with the dehalogenation reaction [3]: generally not to be cleaved
